Where two headings read alike, the source gives them in different places.
Columns and labels:
SF3b complexes = target: T1, SF3b complexes (Homo sapiens, UniProt O75533+Q7RTV0); assay: Scintillation proximity assay (SPA) with [3H]-labelled pladienolide probe; type: binding; conditions: SF3B1 (WT); geometric mean; read-out: SPA-ATS GMean IC50 (nM) SF3B1 (WT)
T1 construct: endogenous in cells; host or cells: Nuclear extracts; A HeLa S3 extract preparation is described for the in vitro splicing assay
In short: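 SF3b complexes captured from nuclear extracts on anti-SF3B1 antibody SPA beads; test compounds pre-incubated 30 min before 2.5 nM [3H]-pladienolide probe added, then 30 min incubation. Bound probe read by scintillation; values from non-linear regression of concentration–response curves.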

[1] = tested on: Ad2 variant pre-mRNAs spliced in HeLa S3 nuclear extracts; assay: In vitro splicing assay (IVS), RT-qPCR of spliced product; type: biochemical; conditions: for IC50: geometric mean; for Ratio Ad2.1/2.2: ratio of IVS IC50 Ad2.1 to Ad2.2
In short: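 Read-out is one-step TaqMan RT-qPCR of spliced Ad2 mRNA with Ftz as reference, normalized to DMSO and fit by non-linear regression. Reactions held HeLa S3 nuclear extract, 2 ng Ad2-derived pre-mRNA and test compound, with 15 min preincubation. Splicing was started with ATP-containing activation buffer and run 90 min at 30 °C.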

[2] = tested on: NCI-H1568 cells (high MCL1); assay: Cell proliferation and viability, CellTiter-Glo, 72 hours; type: cell-based; conditions: for GI50: geometric mean
In short: (§1)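 ATP luminescence (CellTiter-Glo) was measured 72 h after treatment with compound at 10 μM–100 pM (11 points, half-log) in 0.1% DMSO. The Panc line was grown in RPMI-1640 plus insulin and 15% FBS, the other in 10% FBS. Data were normalised to time zero and vehicle controls, where −100% is cidal and 0% static.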

[3] = tested on: Panc 05.04 cells (SF3b K700E mutant); assay: as above; type: cell-based; conditions: for GI50: geometric mean
In short: as §1

[4] = Ad2.1 pre-mRNA substrate, read-out: qPCR-IVS-ATS GMean IC50 (nM) Ad2.1
[5] = Ad2.2 pre-mRNA substrate, read-out: qPCR-IVS-ATS GMean IC50 (nM) Ad2.2
[6] = 72 h, NCIH1568.1, -100% = cidal, 0% = static, 100% = uninhibited growth
[7] = NCI-H1568, read-out: CTGlo-ATS GMean GI50 (nM) 72 h NCIH1568.1, 72 h, NCIH1568.1
[8] = 72 h, PANC0504.1, -100% = cidal, 0% = static, 100% = uninhibited growth
[9] = Panc 05.04, read-out: CTGlo-ATS GMean GI50 (nM) 72 h PANC0504.1, 72 h, PANC0504.1
[10] = NCI-H1568, read-out: CTGlo-ATS GMean GI50 (nM) 72 h NCIH1568.1, NCIH1568.1 cells, 72 h
[11] = NCIH1568.1 cells, 72 h, −100% cidal, 0% static, 100% maximal growth
[12] = PANC0504.1 cells, 72 h, −100% cidal, 0% static, 100% maximal growth
[13] = Panc 05.04, read-out: CTGlo-ATS GMean GI50 (nM) 72 h PANC0504.1, PANC0504.1 cells, 72 h
[14] = NCI-H1568, 72 h, read-out: CTGlo-ATS GMean GI50 (nM) 72 h NCIH1568.1, NCIH1568.1 cells, 72 h
[15] = Panc 05.04, 72 h, read-out: CTGlo-ATS GMean GI50 (nM) 72 h PANC0504.1, PANC0504.1 cells, 72 h

SMILES	IC50 (SF3b complexes)	IC50 [1, 4]	IC50 [1, 5]	Ratio Ad2.1/2.2 [1]	CTGlo-ATS Mean MinResponse % 72 h NCIH1568.1 [2, 6]	GI50 [2, 7]	CTGlo-ATS Mean MinResponse % 72 h PANC0504.1 [3, 8]	GI50 [3, 9]	GI50 [2, 10]	CTGlo-ATS Mean MinResponse % 72 h NCIH1568.1 [2, 11]	CTGlo-ATS Mean MinResponse % 72 h PANC0504.1 [3, 12]	GI50 [3, 13]	GI50 [2, 14]	GI50 [3, 15]
C/C(=C\c1cccc(S(=O)(=O)NC(C)C)c1)[C@H]1OC(=O)CC(O)CCC(C)[C@@H](OC(=O)N2CCN(C)CC2)/C=C/[C@@H]1C (stereo in doubt) [Compound 209, [(2S,3S,4E,6R,7R,10S)-10-hydroxy-3,7-dimethyl-12-oxo-2-[(E)-1-[3-(propan-2-ylsulfamoyl)phenyl]prop-1-en-2-yl]-1-oxacyclododec-4-en-6-yl] 4-methylpiperazine-1-carboxylate]	4.78 nM	3130 nM	30 nM	104.297	−51.998%	12.1 nM	−93.368%	16.4 nM						
C/C(=C\c1cc(F)cc(N2CCN(S(=O)(=O)CCN3CCOCC3)CC2)c1)[C@H]1OC(=O)C[C@H](O)CC[C@H](C)[C@@H](OC(=O)N2CCN(C)CC2)/C=C/[C@@H]1C [Compound 73]	2.42 nM	13.1 nM	13.6 nM						5.85 nM	−76.720%	−79.201%	6.91 nM		
C/C(=C\c1cc(Cl)cc(N2CCOCC2)c1)[C@H]1OC(=O)C[C@H](O)CC[C@H](C)[C@@H](OC(=O)N2CCN(C)CC2)/C=C/[C@@H]1C [Compound 20]	7.76 nM	61.3 nM	40.3 nM						17.6 nM	−68.668%	−78.467%	14.6 nM		
C/C(=C\c1cc(F)cc(N2CCN(CCN3CCOCC3)C2=O)c1)[C@H]1OC(=O)C[C@H](O)CC[C@H](C)[C@@H](OC(=O)N2CCN(C)CC2)/C=C/[C@@H]1C [Compound 67]	1.95 nM	22.7 nM	20.2 nM						8.6 nM	−75.182%	−87.661%	7.27 nM		
C/C(=C\c1cc(F)cc(N2CCN(C(=O)c3cn(C)cn3)CC2)c1)[C@H]1OC(=O)C[C@H](O)CC[C@H](C)[C@@H](OC(=O)N2CCN(C)CC2)/C=C/[C@@H]1C [Compound 120]	3.97 nM	25.3 nM	26.5 nM							−75.164%	−78.098%		11.2 nM	9.42 nM
C/C(=C\c1cc(F)c2cnn(CC(=O)N3CCOCC3)c2c1)[C@H]1OC(=O)C[C@H](O)CC[C@H](C)[C@@H](OC(=O)N2CCN(C)CC2)/C=C/[C@@H]1C [Compound 130]	37.1 nM	43.9 nM	30 nM						12 nM	−72.458%	−93.452%	18.3 nM		
C/C(=C\c1cc(F)cc(N2CCOCC2)c1)C1OC(=O)C[C@H](O)CC[C@H](C)[C@@H](OC(=O)N2CCN(C3CCOCC3)CC2)/C=C/[C@@H]1C (stereo partly drawn) [Compound 36]	3.49 nM	236 nM	32.9 nM							−54.389%	−84.494%		25.4 nM	19 nM
C/C(=C\c1cc(F)cc(N2CCO[C@@H](C)C2)c1)[C@H]1OC(=O)C[C@H](O)CC[C@H](C)[C@@H](OC(=O)N2CCN(C)CC2)/C=C/[C@@H]1C [Compound 69]	3.83 nM	36.7 nM	20.9 nM							−76.018%	−86.274%		4.04 nM	7.48 nM
C/C(=C\c1cc(F)cc(N2CCCC2=O)c1)[C@H]1OC(=O)C[C@H](O)CC[C@H](C)[C@@H](OC(=O)N2CCN(C)CC2)/C=C/[C@@H]1C [Compound 42]	2.92 nM	330 nM	12.6 nM						6.13 nM	−63.030%	−86.319%	4.76 nM		
C/C(=C\c1ccc(C)c(N2CCCC2=O)c1)[C@H]1OC(=O)C[C@H](O)CC[C@H](C)[C@@H](OC(=O)N2CCN(C)CC2)/C=C/[C@@H]1C [Compound 207, [(2S,3S,4E,6R,7S,10R)-10-hydroxy-3,7-dimethyl-2-[(E)-1-[4-methyl-3-(2-oxopyrrolidin-1-yl)phenyl]prop-1-en-2-yl]-12-oxo-1-oxacyclododec-4-en-6-yl] 4-methylpiperazine-1-carboxylate]	3.46 nM	22.5 nM	15.5 nM	1.451	−63.380%	16.9 nM	−92.266%	15.1 nM						
C/C(=C\c1cc(F)cc(N2CC[C@H](N(C)C)C2)c1)[C@H]1OC(=O)C[C@H](O)CC[C@H](C)[C@@H](OC(=O)N2CCN(C)CC2)/C=C/[C@@H]1C [Compound 17]	10.7 nM	46.8 nM	34 nM						53.4 nM	−87.647%	−72.749%	57.8 nM		
CNC(=O)Cn1ncc2c(F)cc(/C=C(\C)[C@H]3OC(=O)C[C@H](O)CC[C@H](C)[C@@H](OC(=O)N4CCN(C)CC4)/C=C/[C@@H]3C)cc21 [Compound 128]	8.76 nM	3350 nM	18.1 nM						25.7 nM	−62.651%	−96.227%	44.2 nM		
C/C(=C\c1cc(F)cc(N(C)C2COC2)c1)[C@H]1OC(=O)C[C@H](O)CC[C@H](C)[C@@H](OC(=O)N2CCN(C)CC2)/C=C/[C@@H]1C [Compound 169]	1.43 nM	96.6 nM	19.8 nM						8.26 nM	−66.086%	−90.232%	8.9 nM		
C/C(=C\c1ccc(C)c2[nH]ncc12)[C@H]1OC(=O)C[C@H](O)CC[C@H](C)[C@@H](OC(=O)N2CCN(C)CC2)/C=C/[C@@H]1C [Compound 89, [(2S,3S,4E,6R,7S,10R)-10-hydroxy-3,7-dimethyl-2-[(E)-1-(7-methyl-1H-indazol-4-yl)prop-1-en-2-yl]-12-oxo-1-oxacyclododec-4-en-6-yl] 4-methylpiperazine-1-carboxylate]	3.25 nM	24700 nM	95.4 nM						219 nM	−22.815%	−16.694%	109 nM		
C/C(=C\c1cc(F)cc(N2CCS(=O)(=O)CC2)c1)[C@H]1OC(=O)C[C@H](O)CC[C@H](C)[C@@H](OC(=O)N(C)C)/C=C/[C@@H]1C [Compound 51]	19.7 nM	> 25000 nM	88.1 nM						112 nM	−31.962%	−78.388%	80.9 nM		
C/C(=C\c1cc(F)cc(N2CC[C@@H](O)C2)c1)[C@H]1OC(=O)C[C@H](O)CC[C@H](C)[C@@H](OC(=O)N2CCN(C)CC2)/C=C/[C@@H]1C [Compound 34]	3.18 nM	56.5 nM	26.9 nM							−55.438%	−85.656%		9.46 nM	14 nM

Source: patent publication US11679107B2 (Eisai R&D Management Co., Ltd., priority 2018, dated 2023)
